Data on one compound can be found in patent publication US20250114313A1, “OLIGO-BENZAMIDE ANALOGS AND THEIR USE IN CANCER TREATMENT” (BOARD OF REGENTS, THE UNIVERSITY OF TEXAS SYSTEM, priority 2022, published 2025).

pIC50: −log10 of the molar value. “Also recorded” adds a separate entry of the source.

Series [1] relates to SUM-159 cells. Kind of series: Airyscan / live cell confocal imaging of ER tubule width, SUM-159 mCherry-RAMP4. It is filed as cell-based, Human. How it is done:
Live cell confocal and Airyscan imaging: To visualize ER structure, stable SUM-159 cell lines expressing mCherry-RAMP4 were established. pLenti-X1-hygro-mCherry-RAMP4 was purchased from Addgene (Addgene #118391; //n2t.net/addgene:118391; RRID:Addgene_118391) (via Jacob Corn).^35 The live cell images were acquired by Confocal Zeiss LSM880 Airyscan. ER tubule width was calculated by drawing 1px-wide line scans perpendicular to the long axis of individual ER tubules. In MATLAB, the peak intensity along each line scan was determined and the distance between the half maximum intensity on either side of the peak was measured. The code for this analysis is available at: //github.com/andmoo91/HalfMaxScript.

The subject of series [2] is ERα+ breast, glioblastoma, pancreatic and ovarian cancer cell lines. Description: CTG dose response in other cancer cell lines. It counts as cell-based. How it is done:
(§1) Cell viability assays: Cells were seeded in 96-well plates (2×10^3 cells/well) one day before the treatment. Cells were treated with varying concentrations of ERX-41 or ERX-11 analogs for 3-6 days. Then effects of ERX-41 or ERX-11 analogs on cell viability were measured in triplicate or sextuplicate with multiple biological replicates using the WST-1 (Promega), MTT as previously described^33 or CellTiter-Glo 2.0 (Promega) assays.

Series [3] concerns ERα-positive breast cancer cells (MCF-7, ZR-75). Kind of series: MTT cell viability, ERα-positive breast cancer cells. The note with it: Homo sapiens, MCF-7 and ZR-75, read-out: anti-proliferative IC50. It counts as cell-based, Human. The method, then: as §1
In series [4] the test system is normal human mammary epithelial cells (HMEC). Description: Cell viability (WST, MTT, CellTiter-Glo), HMEC. It counts as cell-based. The note with it: at >1 μM, MTT or CellTiter-Glo. The method, then: as §1
Background: Cellular ATP, detected with luciferase, serves as a proxy for viable cell number.

Series [5] has as its system HSPA5, DDIT3, sXBP1 mRNA in HMEC cells. Kind of series: RT-qPCR of ER stress / UPR genes, HMEC. It is filed as cell-based, human. The note with it: 1 μM.
Series [6] concerns LAL. Kind of series: Biotinylated compound pull down of LAL from SUM-159 lysates. It counts as binding, Human. How it is done:
The lysate was incubated with biotinylated-ERX-11 or biotinylated-ERX-41 overnight, followed by one-hour incubation with M-270 streptavidin Dynabeads. After four times of washes with lysis buffer, samples were eluted by boiling in 2× Laemmli sample buffer. Bound proteins were resolved in SDS-PAGE followed by western blotting.

Series [7] deals with T1, vinculin (Homo sapiens, UniProt P18206).
T1 construct: heat stability of LAL or vinculin protein in SUM-159 cells; endogenous in cells; host or cells: SUM-159
T1 sequence (P18206 1-1066 isoform P18206-2): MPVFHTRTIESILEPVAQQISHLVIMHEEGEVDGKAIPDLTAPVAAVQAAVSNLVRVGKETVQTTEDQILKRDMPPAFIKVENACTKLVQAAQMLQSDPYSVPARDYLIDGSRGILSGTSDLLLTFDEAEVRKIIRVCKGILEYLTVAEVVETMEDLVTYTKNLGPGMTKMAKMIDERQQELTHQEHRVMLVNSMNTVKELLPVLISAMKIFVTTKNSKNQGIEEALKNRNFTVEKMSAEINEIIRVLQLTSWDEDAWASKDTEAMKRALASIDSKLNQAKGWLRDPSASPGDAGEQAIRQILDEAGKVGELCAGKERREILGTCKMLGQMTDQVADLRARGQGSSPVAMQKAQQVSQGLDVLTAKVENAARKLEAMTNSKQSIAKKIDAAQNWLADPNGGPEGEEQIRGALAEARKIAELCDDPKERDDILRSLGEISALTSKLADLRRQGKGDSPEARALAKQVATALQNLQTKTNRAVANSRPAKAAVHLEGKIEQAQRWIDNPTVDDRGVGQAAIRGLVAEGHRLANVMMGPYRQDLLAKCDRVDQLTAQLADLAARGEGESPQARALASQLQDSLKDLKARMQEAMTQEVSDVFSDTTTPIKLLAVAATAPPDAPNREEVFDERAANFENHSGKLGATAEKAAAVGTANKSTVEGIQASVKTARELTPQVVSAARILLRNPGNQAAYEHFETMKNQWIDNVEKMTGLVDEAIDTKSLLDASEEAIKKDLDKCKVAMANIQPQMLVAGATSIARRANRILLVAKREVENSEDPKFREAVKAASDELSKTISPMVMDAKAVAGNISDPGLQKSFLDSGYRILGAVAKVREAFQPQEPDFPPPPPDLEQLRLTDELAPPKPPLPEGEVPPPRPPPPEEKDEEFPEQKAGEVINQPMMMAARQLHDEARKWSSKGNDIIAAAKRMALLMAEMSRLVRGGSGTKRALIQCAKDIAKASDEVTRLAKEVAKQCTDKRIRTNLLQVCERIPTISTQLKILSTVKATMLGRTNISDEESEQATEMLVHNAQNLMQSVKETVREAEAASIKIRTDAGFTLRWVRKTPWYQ
Kind of series: Cellular thermal shift assay, vinculin. It counts as binding. The note with it: 10 μM, SUM-159 cells. How it is done: (§2) Cellular Thermal Shift Assay (CETSA): Cellular Thermal Shift Assays were performed as described previously^36. Briefly, cells were treated with DMSO or 10 μM ERX-41 for 30 min, then trypsinized, pelleted and resuspended in PBS supplemented with Halt protease inhibitor cocktail (Thermo Scientific), with DMSO or 10 μM ERX-41. Resuspended cells were aliquoted into PCR strips. The cells were incubated in thermal cycler (Bio-rad) at gradient temperatures for 3 minutes, followed by incubation at 25° C. for 3 minutes. Then cells were snap-frozen in liquid nitrogen. Freeze-thaw the cells twice using liquid nitrogen. Then transfer samples into Eppendorf tubes, followed by briefly vortex and centrifuge at 20,000 g for 20 minutes at 4° C. Mix cleared cell lysates with ⅓ volume of 4× Laemmli sample buffer. After boiling, cell lysates were resolved in SDS-PAGE followed by western blotting.

Series [8] concerns the target T2, lysosomal acid lipase (LAL) protein (Homo sapiens, UniProt P38571).
T2 construct: heat stability of LAL or vinculin protein in SUM-159 cells; endogenous in cells; host or cells: SUM-159
Description: Cellular thermal shift assay, LAL. It counts as binding. The note with it: 10 μM, SUM-159 cells. How it is done:
as §2

The test system of series [9] is TNBC cells (MDA-MB-231). Kind of series: Transmission electron microscopy of ER. It is filed as cell-based, Human. The note with it: 1 μM, within 4 h. The method, then: Transmission Electron Microscopy: DMSO or ERX-41 treated cells were fixed with 2.5% glutaraldehyde (Electron Microscopy Sciences) in 0.1 M sodium cacodylate pH7.4 buffer (Electron Microscopy Sciences) for 20 min at room temperature. After rinsing with 0.1 M sodium cacodylate pH7.4 buffer, cells were further fixed with 1% Osmium with 0.8% K3Fe(CN6) in 0.1 M sodium cacodylate pH7.4 buffer. After pre-staining with 4% uranyl acetate in 50% ethanol, cells were dehydrated with series concentrations of ethanol (from 50% to 100%). After transitioning from propylene oxide to resin and embedding in Embed 812 resin (Electron Microscopy Sciences), cells were located using light microscopy and trimmed out. 60-70 nm-thin sections were cut, mounted on formvar-coated grids, and viewed by a transmission electron microscope (Tecnai G2 spirit; FEI) equipped with a LaB6 source using a voltage of 120 kV.

The subject of series [10] is primary TNBC PDEs. Description: TNBC patient-derived explant (PDE) cultures ex vivo. It counts as cell-based, human. From the text:
TNBC patient-derived explant (PDE) studies: For PDE studies excised tissue samples were processed and cultured ex vivo as previously described. De-identified patient tumors were obtained from the UTSW Tissue Repository after institutional review board approval (STU-032011-187). Inclusion criteria included women with prior histologic confirmation of TNBC who were undergoing surgical extirpation or biopsy of their primary tumor. Prior treatment with chemotherapy and/or radiation was allowed. Exclusion criteria included concurrent or prior diagnosis of other malignancies or prior evidence of ERα+ or HER2+ breast cancer. All cases were reviewed by the UTSW Tissue Repository in advance and patients were consented for their tissue to be used for laboratory research. Only de-identified information was shared with the laboratory. None of the laboratory personnel had access to additional patient information. No attrition was noted. Briefly, fresh tumor samples were incubated on gelatin sponges in culture medium containing 10% FBS, followed by treatment with either vehicle or presence of 2.5 μM ERX-41 for 72 h. Representative tissues were fixed in 10% formalin at 4° C. overnight and subsequently processed into paraffin blocks. Sections were then processed for immunohistochemical analysis.
Immunohistochemistry: Immunohistochemical studies were performed as described previously.^7 For the immunohistochemical studies, tissue sections were blocked in background sniper (Biocare Medical, RS966L) followed by overnight incubation with primary antibodies anti-Ki-67 antibody (1:1000, GeneTex cat #GTX16667 RRID:AB_422351) (link), anti-CHOP antibody (1:2000, Sigma, Cat #HPA068416), anti-PERK (phospho T982) antibody (1:150, Abcam Cat #ab192591, RRID:AB_2728666) link)), anti-phospho-eIF2α (Ser51) (1:50, Cell signaling, cs3398) and subsequent secondary antibody incubation for 60 min at room temperature. Immunoreactivity was visualized by using the DAB substrate and counterstained with hematoxylin (Vector Lab, Inc.). […]

The mark [11] stands for this setting: parental SUM-159, 1 μM, from ~200 nm.

T2 sequence (P38571 77-399): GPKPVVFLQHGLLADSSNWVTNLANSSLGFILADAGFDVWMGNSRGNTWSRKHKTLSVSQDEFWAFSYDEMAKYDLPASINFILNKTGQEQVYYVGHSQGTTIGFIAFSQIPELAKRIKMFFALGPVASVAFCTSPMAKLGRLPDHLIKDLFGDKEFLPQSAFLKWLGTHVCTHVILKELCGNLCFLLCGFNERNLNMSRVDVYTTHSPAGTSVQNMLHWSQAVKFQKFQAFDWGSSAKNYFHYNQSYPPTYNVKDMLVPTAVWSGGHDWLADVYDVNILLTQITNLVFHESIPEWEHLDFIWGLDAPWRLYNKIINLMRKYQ

The term pIC50 denotes the IC50 on a negative log10 scale, so that one unit is a factor of ten. Consider `CC(C)COc1cc(C(=O)Nc2ccc(C(=O)N[C@H]3CC[C@H](C)CC3)cc2OCC(C)C)ccc1NC(=O)c1ccc([N+](=O)[O-])c(OCCO)c1` [ERX-41], for which the “ER tubule width, mean±S.D., airyscan” value in series [1] (1 μM, 2 h, 0 h = 260±80 nm) amounted to 660±320 nm. In addition, in [1] (discussion), the “measured ER dilation following treatment” value is on record as about 600 nm. In addition, in series [1] (setting [11]), the “ER tubule diameter, live cell confocal, 2 h” value is on record as about 500 nm and the “ER tubule diameter, live cell confocal, 4 h” value is about 620 nm. Also, the “responsiveness of other cancer cell lines in vitro” value in series [2] is recorded as “responsiveness to ERX-41 in vitro”. Moreover, in series [3], the pIC50 is 6.90 to 7.00. Also, the “effect on normal human mammary epithelial cells” value in series [4] was “non-toxic; also recorded: did not have significant effect”. In addition, the “upregulation of HSPA5, DDIT3, sXBP1 mRNA in HMEC” value in series [5] is given as “not in HMEC cells”. Moreover, the “pulldown of LIPA constructs” value in series [6] (biotinylated ERX-41, WT, H274Y, ΔLXXLL, L242P) is “interaction between ERX-41 and proteins encoded by WT-LIPA and H274Y MT-LIPA but not ΔLXXLL MT-LIPA or L242P MT-LIPA”. Moreover, in series [6] (biotinylated compound, streptavidin pull down), the “binding to LAL in TNBC cells” value is listed as “binds to LAL”. For the same compound, the “thermal stability of vinculin” value in [7] is “did not affect vinculin thermal stability”. Also, the “thermal stability of LAL” value in series [8] is recorded as “stabilize the thermal stability of LAL”. For the same compound, the “ER morphology by TEM” value in [9] is “dramatic dilation of the ER”. In addition, in series [10] (IHC, within 24 h after treatment), the “UPR pathway markers in explants” value was “enhanced pPERK, CHOP (protein product of DDIT3 gene) and peIF2a staining”. Further, in [10] (ex vivo), the “apoptosis (cleaved caspase 3 staining) of explants” value is recorded as “increased apoptosis” and the “proliferation (Ki67 staining) of explants” value was “decreased proliferation”.
